Test results taken from ChEMBL document CHEMBL1201862, “PubChem BioAssay data set” (2004).
Calls of active or inactive are those of the source.

Legend:
cells = format: functional, cell-based; conditions: HEK-CNG
Galanin receptor type 3 = target: T1, Galanin receptor type 3 (Homo sapiens, UniProt O60755); experiment: Fluorescence-based cell-based primary high throughput dose response assay to identify antagonists of the Galanin Receptor 3 (GalR3).; format: functional
T1 sequence (O60755 whole entry): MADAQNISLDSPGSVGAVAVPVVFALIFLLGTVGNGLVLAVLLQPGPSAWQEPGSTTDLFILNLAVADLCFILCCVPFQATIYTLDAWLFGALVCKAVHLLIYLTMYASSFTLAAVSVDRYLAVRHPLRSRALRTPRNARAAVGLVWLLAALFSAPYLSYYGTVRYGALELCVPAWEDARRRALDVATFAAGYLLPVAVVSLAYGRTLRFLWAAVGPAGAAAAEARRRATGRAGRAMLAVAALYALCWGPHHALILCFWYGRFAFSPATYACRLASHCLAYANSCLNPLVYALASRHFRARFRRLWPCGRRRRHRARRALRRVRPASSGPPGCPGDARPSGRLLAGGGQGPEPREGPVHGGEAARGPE

[1] = NIH-3T3 fibroblast cytotoxicity, dose response, cytotoxicity control, cell-based, fluorescence, Alamar Blue, secondary assay (AID 2327); format: functional;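 note: NIH-3T3 mouse fibroblasts cultured with fluconazole at 8 µg/mL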
[2] = fluconazole-exposed Candida albicans growth modulators – fluorescence, retest, confirmation (AID 2467); format: functional, cell-based
[3] = target: ATP-dependent molecular chaperone HSP82 (Candida albicans (strain WO-1) (Yeast), UniProt C4YTQ8); experiment: steroid-induced GRE reporter decrease in yeast – S. cerevisiae, luminescence, Hsp90 inhibitor project, dose response (AID 2400); format: functional, cell-based;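 note: beta-galactosidase luminescence from glucocorticoid response element reporter as proxy for Hsp90 function; inhibitor potency where signal loss means Hsp90 inhibition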
[4] = target: T2, Corticotropin-releasing factor receptor 2/Corticotropin-releasing factor-binding protein (Homo sapiens, UniProt P24387+Q13324); experiment: activators of CRF receptor 2 with binding protein – uHTS hits, confirmation (AID 602473); format: functional; conditions: read-out: EC50_Mean
T2 sequence (Q13324 whole entry): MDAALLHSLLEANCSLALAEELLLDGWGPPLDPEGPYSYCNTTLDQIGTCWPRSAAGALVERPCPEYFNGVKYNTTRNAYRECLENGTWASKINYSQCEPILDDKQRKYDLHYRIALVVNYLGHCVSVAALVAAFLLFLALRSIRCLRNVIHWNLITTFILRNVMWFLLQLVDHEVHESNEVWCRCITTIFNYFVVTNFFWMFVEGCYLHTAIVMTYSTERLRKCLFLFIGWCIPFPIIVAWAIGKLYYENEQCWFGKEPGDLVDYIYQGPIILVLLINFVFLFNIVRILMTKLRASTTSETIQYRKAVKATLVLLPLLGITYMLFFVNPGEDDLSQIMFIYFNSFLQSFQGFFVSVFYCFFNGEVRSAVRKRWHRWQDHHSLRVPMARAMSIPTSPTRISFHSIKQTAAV
T2 sequence (P24387 whole entry): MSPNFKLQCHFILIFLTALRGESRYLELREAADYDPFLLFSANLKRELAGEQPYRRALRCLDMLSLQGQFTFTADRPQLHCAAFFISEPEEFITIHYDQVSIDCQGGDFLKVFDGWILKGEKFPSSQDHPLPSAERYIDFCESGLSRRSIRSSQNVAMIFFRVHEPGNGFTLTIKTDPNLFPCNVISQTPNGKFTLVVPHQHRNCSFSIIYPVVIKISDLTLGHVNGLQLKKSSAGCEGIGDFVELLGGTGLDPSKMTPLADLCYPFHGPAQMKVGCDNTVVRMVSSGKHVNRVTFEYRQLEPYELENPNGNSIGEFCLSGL

[5] = target: T3, Serine/threonine-protein phosphatase (Candida dubliniensis (strain CD36 / CBS 7987 / NCPF 3949 / NRRLY-17841) (Yeast), UniProt B9W6M3); experiment: blockers of CaCl2-induced CDRE-lacZ signaling – S. cerevisiae, luminescence, secondary, dose response (AID 2388); format: functional, cell-based;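 note: yeast reporter cells carrying a calcineurin-responsive lacZ construct stimulated with calcium chloride; luminescent beta-galactosidase reporter signal in whole cells rather than isolated phosphatase activity; potency for inhibition where a drop in reporter signal means calcineurin blockade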
T3 sequence (B9W6M3 whole entry): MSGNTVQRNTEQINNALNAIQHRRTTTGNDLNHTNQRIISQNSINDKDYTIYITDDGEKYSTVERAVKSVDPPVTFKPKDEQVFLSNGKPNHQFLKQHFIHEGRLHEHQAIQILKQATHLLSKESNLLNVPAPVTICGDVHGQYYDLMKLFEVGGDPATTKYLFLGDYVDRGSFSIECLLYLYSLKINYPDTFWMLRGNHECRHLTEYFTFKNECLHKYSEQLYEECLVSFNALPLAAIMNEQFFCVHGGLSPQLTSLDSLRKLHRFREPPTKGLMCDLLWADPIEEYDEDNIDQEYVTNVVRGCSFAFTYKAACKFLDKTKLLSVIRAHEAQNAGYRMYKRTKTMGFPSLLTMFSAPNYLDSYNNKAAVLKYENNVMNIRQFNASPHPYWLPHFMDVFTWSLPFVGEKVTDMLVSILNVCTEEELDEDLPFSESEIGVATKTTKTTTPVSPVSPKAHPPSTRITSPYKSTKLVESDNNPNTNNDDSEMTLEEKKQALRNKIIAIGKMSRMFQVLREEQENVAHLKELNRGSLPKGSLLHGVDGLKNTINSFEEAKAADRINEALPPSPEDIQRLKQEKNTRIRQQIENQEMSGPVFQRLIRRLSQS

[6] = target: T4, Heat shock factor protein 1 (Mus musculus, UniProt P38532); experiment: enhancement of HSF1-driven luciferase signal – cell-based, NIH3T3, luminescence, dose retest, confirmation (AID 435004); format: functional;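 note: stress induced by proteasome inhibitor MG132 added 30 min after compound; luciferase reporter driven by HSF1 response element in NIH3T3 cells; actives raise luminescence as potentiators of the MG132 stress response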
T4 sequence (P38532 whole entry): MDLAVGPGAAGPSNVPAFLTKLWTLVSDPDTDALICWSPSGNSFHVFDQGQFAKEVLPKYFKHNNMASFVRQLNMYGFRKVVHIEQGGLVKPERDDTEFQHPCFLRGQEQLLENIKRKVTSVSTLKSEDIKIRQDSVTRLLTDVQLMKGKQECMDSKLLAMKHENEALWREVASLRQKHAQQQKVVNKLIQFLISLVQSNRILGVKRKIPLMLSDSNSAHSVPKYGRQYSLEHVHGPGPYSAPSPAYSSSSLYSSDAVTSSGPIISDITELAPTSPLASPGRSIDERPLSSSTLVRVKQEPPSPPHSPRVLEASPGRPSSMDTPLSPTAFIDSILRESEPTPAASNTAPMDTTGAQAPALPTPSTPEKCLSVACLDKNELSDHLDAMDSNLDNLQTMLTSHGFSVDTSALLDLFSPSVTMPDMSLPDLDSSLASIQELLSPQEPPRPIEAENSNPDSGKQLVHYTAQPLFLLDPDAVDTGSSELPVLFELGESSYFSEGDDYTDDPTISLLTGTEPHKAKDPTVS

[7] = target: T5, Small ubiquitin-related modifier 1 (Homo sapiens, UniProt P63165); experiment: SUMO1 protein-protein binding blockers, potency – biochemical, FRET, dose response (AID 624383); format: functional; conditions: read-out: IC50_Mean
[8] = target: T5, Small ubiquitin-related modifier 1; experiment: SUMO1 protein interaction blockers, potency – biochemical, fluorescence polarization, uHTS hits, dose response (AID 624382); format: functional; conditions: read-out: IC50_Mean
[9] = Luminescence Cell-Based Dose Retest to Confirm Inhibitors of Cancer Stem Cells. [Related pubchem assays (depositor defined):AID2717, AID2721]; format: functional; conditions: Homo sapiens
[10] = target: T6, DNA repair protein RAD52 homolog (Homo sapiens, UniProt P43351); format: functional, biochemical
T6 sequence (P43351 whole entry): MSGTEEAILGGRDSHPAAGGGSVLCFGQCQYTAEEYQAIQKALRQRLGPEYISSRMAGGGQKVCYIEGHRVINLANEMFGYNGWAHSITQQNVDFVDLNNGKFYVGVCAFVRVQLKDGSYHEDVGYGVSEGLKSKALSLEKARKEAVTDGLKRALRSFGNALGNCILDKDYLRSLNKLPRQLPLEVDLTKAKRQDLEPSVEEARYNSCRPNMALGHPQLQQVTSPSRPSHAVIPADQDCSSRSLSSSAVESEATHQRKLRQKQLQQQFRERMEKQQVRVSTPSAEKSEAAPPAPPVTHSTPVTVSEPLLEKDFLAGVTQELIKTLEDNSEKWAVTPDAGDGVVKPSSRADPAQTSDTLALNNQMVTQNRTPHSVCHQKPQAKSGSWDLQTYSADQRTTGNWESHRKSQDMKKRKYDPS

INS1 = experiment: INS-1E survival protection against cytokine death – cell-based, luminescence, retest, dose response (AID 449756); format: functional; conditions: Rattus norvegicus;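 note: cell death triggered by IL-1 beta plus TNF-alpha plus IFN-gamma mixture; protective hits raise ATP signal compared with cytokine alone wells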

ATP-dependent molecular chaperone HSP82, sequence (C4YTQ8 whole entry): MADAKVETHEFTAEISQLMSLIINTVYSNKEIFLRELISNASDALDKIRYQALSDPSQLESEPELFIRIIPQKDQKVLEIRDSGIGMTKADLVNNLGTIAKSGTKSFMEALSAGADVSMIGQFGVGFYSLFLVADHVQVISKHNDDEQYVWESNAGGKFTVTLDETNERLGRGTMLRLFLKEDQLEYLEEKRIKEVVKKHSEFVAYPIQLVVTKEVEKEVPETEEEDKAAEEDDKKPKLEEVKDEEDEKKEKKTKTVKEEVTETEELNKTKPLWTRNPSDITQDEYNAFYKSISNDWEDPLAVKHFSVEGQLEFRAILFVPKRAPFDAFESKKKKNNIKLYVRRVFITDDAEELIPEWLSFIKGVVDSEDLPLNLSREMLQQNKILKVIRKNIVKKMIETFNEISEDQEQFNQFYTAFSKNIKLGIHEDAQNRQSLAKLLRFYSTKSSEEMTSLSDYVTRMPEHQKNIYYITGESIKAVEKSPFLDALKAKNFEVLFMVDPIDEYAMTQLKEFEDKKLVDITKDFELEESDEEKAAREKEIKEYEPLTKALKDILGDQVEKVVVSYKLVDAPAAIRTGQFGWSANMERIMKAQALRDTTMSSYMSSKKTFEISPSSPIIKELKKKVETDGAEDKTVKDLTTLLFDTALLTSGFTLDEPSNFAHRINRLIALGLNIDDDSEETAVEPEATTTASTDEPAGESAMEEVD
T5 sequence (P63165 whole entry): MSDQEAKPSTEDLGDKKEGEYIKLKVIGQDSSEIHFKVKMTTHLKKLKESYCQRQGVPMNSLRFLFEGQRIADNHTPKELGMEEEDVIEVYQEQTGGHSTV

COCCn1c(C)cc(C(=O)COc2nc3ccccc3nc2C)c1C
EC50 (cells): > 29.9 µM (inactive) | IC50 (Galanin receptor type 3): 3.67 µM (active)

CCc1nnc(NC(=O)CSc2nc(SC)ns2)s1
EC50 [1]: > 160 µM (inactive) | EC50 [2]: 2.88 µM (active) | EC50 [3]: > 160 µM (inactive) | EC50 [4]: > 53 µM (inactive) | EC50 [5]: > 180 µM (inactive)

Cn1cc([N+](=O)[O-])c(C(=O)Nc2ccc(-c3nc4ccccc4o3)cc2)n1
EC50 [6]: 6.61 µM (active) | IC50 [7]: 17.3 µM (active) | IC50 [8]: > 66.6 µM (inactive) | AC50 [9]: 2.45 µM (active)

CCN1CCc2nc(N)sc2C1
AC50 [10]: 23.4 µM (active)

COc1ccc(C2C(C#N)=C(N)Oc3c2ccc2cccnc32)cc1OC (configuration not stated)
AC50 (INS1): 6.75 µM (active) | EC50 [1]: 19.1 µM (inconclusive) | EC50 [2]: 5.01 µM (active) | EC50 [3]: > 150 µM (inactive) | EC50 [5]: > 180 µM (inactive)
